One series addresses HLA DRB1 *0101 (Homo sapiens, UniProt P01903+P01911, A100R/D57E/F55L/F60I/F76Y/I96L/L162R/M171V/P40L/Q125E/R42F/V115G/Y59C). Description: IC50nM to purified HLA | DRB1 *0101. The protocol: (§1) Table printed on a drawing sheet, FIG. 1 (contd.)
Head of the field: IC50nM to purified HLA | DRB1 *0101
(§2) First copying reader's note: Continued from an earlier sheet of FIG. 1; decimal commas as printed, analog names encode substituted residues and positions, and some values are printed in italics or bold and some SEQ ID NOs underlined without a legend on this sheet.
Where the first naming reader finds the target: head: IC50nM to purified HLA | DRB1 *0101

The target of a further series is HLA DRB1 *0301 (Homo sapiens, UniProt P01903+P01911, A100K/A102G/A103R/A169T/F55Y/I96L/K41T/L162R/M171V/P40S/Q125H/Q178H/Q39Y/R42S/S66N/T106N/T262R/W38E/Y61H). Description: IC50nM to purified HLA | DRB1 *0301. As to the method:
as §1
Head of the field: IC50nM to purified HLA | DRB1 *0301
as §2
Where the first naming reader finds the target: head: IC50nM to purified HLA | DRB1 *0301

The target of another series is HLA DRB1 *0405 (Homo sapiens, UniProt P01903+P01911, A100R/A169T/D86S/F76Y/I96L/K127E/L162R/M171V/N62H/P40V/Q125Y/R42H/S133A/S149N/S66Y/V115G/V209L/W38E). Description: IC50nM to purified HLA | DRB1 *0405. As to the method: as §1
Head of the field: IC50nM to purified HLA | DRB1 *0405
as §2
Where the first naming reader finds the target: head: IC50nM to purified HLA | DRB1 *0405

The next series has as its target HLA DRB1 *0701 (Homo sapiens, UniProt P01903+P01911, A100R/A102G/A103Q/D57E/D86V/E43K/F76Y/K127E/L162R/M171V/P40G/Q125H/Q99D/R33Q/R42Y/R54Q/S133A/S66F/T210M/V115G/Y107V/Y59L/Y89S). Description: IC50nM to purified HLA | DRB1 *0701. As to the method:
as §1
Head of the field: IC50nM to purified HLA | DRB1 *0701
as §2
Where the first naming reader finds the target: head: IC50nM to purified HLA | DRB1 *0701

The target of a further series is HLA DRB1 *0901 (Homo sapiens, UniProt P01903+P01911, A100R/A103E/D57H/D86V/F55Y/F60I/F76Y/I96F/K127E/L162R/M171V/P40D/Q125H/Q99R/R33Q/R42F/S133A/S66N/T210M/V115G/W38K/Y107V/Y59G/Y89S). In words: IC50nM to purified HLA | DRB1 *0901. The protocol: as §1
Head of the field: IC50nM to purified HLA | DRB1 *0901
as §2
Where the first naming reader finds the target: head: IC50nM to purified HLA | DRB1 *0901

Another series addresses HLA DRB4 *0101 (Homo sapiens, UniProt P01903+P13762, G164S). In words: IC50nM to purified HLA | DRB4 *0101. The protocol:
as §1
Head of the field: IC50nM to purified HLA | DRB4 *0101
as §2
Where the first naming reader finds the target: head: IC50nM to purified HLA | DRB4 *0101

The target of the next series is HLA DRB1 *1501 (Homo sapiens, UniProt P01903+P01911). Description: IC50nM to purified HLA | DRB1 *1501. The protocol: as §1
Head of the field: IC50nM to purified HLA | DRB1 *1501
as §2
Where the first naming reader finds the target: head: IC50nM to purified HLA | DRB1 *1501

Another series deals with HLA DRB5 *0101 (Homo sapiens, UniProt P01903+Q30154). In words: IC50nM to purified HLA | DRB5 *0101. The protocol: as §1
Head of the field: IC50nM to purified HLA | DRB5 *0101
as §2
Where the first naming reader finds the target: head: IC50nM to purified HLA | DRB5 *0101

The target of another series is HLA DRB1 *0404 (Homo sapiens, UniProt P01903+P01911, A100R/A169T/F76Y/I96L/K127E/L162R/M171V/N62H/P40V/Q125Y/R42H/S133A/S149N/S66Y/V209L/W38E). In words: IC50nM to purified HLA | DRB1 *0404. The protocol: as §1
Head of the field: IC50nM to purified HLA | DRB1 *0404
as §2
Where the first naming reader finds the target: head: IC50nM to purified HLA | DRB1 *0404

The next series addresses HLA DRB1 *1101 (Homo sapiens, UniProt P01903+P01911, A100R/A169T/A87E/I96F/K41T/L162R/M171V/P40S/Q125H/Q178H/Q39Y/Q99D/R42S/S66Y/T262R/V115G/W38E). Description: IC50nM to purified HLA | DRB1 *1101. The protocol: as §1
Head of the field: IC50nM to purified HLA | DRB1 *1101
as §2
Where the first naming reader finds the target: head: IC50nM to purified HLA | DRB1 *1101

The next series concerns the target HLA DRB1 *0401 (Homo sapiens, UniProt P01903+P01911, A100K/A169T/F76Y/I96L/K127E/L162R/M171V/N62H/P40V/Q125Y/R42H/S133A/S149N/S66Y/V115G/V209L/W38E). In words: IC50nM to purified HLA | DRB1 *0401. As to the method:
as §1
Head of the field: IC50nM to purified HLA | DRB1 *0401
as §2
Where the first naming reader finds the target: head: IC50nM to purified HLA | DRB1 *0401

For the next series, the target named is HLA DRB1 *0802 (Homo sapiens, UniProt P01903+P01911, A100R/A103L/A169T/F76Y/H45Y/I96F/K41T/L162R/M171V/P40S/Q125H/Q178H/Q39Y/Q99D/R218S/R42G/S66Y/V115G/W38E). In words: IC50nM to purified HLA | DRB1 *0802. As to the method: as §1
Head of the field: IC50nM to purified HLA | DRB1 *0802
as §2
Where the first naming reader finds the target: head: IC50nM to purified HLA | DRB1 *0802

The target of a further series is HLA DRB1 *1302 (Homo sapiens, UniProt P01903+P01911, A100E/A169T/K41T/L162R/M171V/P40S/Q125H/Q178H/Q39Y/Q99D/R42S/S66N/T262R/V115G/W38E/Y61H). In words: IC50nM to purified HLA | DRB1 *1302. The protocol:
as §1
Head of the field: IC50nM to purified HLA | DRB1 *1302
as §2
Where the first naming reader finds the target: head: IC50nM to purified HLA | DRB1 *1302

In series [1] the test system is crude extract from E. coli. Description: In situ protease assay: TNFα variants in E. coli crude extract, SDS-PAGE and Western blot. The class given is in vitro ADME. Conditions: E. coli crude extract, immunoblot; data not shown. As to the method: In order to test the protease resistance of selected, good binding PADRE analogues, their sequences were inserted by cloning techniques into a loop (loop EF) in human TNFα. Cell-free protein crude extract from E. coli expressing the modified TNFα molecules was prepared and proteolytic cleavage within the PADRE analogue sequences was analysed by SDS-PAGE followed by immunoblotting.
A synthetic cDNA encoding TNF (Y87S) was used as template. Oligonucleotides encoding PADRE or PADRE analogues were inserted into the template between A185 and E186 by PCR (cf. above). Resulting cDNAs were cloned into pET28b+(Novagen) and transformed into E. coli strain HMS 174. For recombinant expression, the resulting E. coli strains were cultured in fermentors in a defined medium at 37° C. Induction of recombinant expression was initiated by the addition of 1 mM of IPTG and temperature was lowered to 25° C. Cultures were harvested at 4, 8 or 24 h post-IPTG induction. TNFα variants were purified to >90% homogeneity by affinity chromatography using a TNFα specific monoclonal antibody as described in Nielsen et al., (2004), J Biol. Chem. 279:33593-33600. The purified TNFα variants were characterized by MALDI-TOF mass spectrometry to verify their identity and integrity.
In Situ Protease Assay: Analysis of the Protease Resistance of TNF-α Variants Using Western Blot
Aliquots (1 ml) of E. coli cell cultures, expressing the various TNF-α variants to be tested, were centrifuged (5000 g/5 min/5° C.) and the culture medium was discarded. Cell pellets were resuspended in 1 ml of 20 mM Bis-Tris, pH 6.0. Cell disruption was achieved by sonication (4×15 sec at an amplitude of 11 μm with 20 sec pauses between each sonication round). The resulting suspensions were centrifuged (20000 g/30 min/8° C.) and the supernatants (crude extracts) were transferred to fresh tubes. Crude extracts were then analysed for protein content using a Bradford protein assay (Biorad). Equivalent amounts of proteins were loaded onto 4-12% NuPAGE gels (Novex). After SDS-PAGE, proteins were transferred onto nitrocellulose membrane by semi-dry blotting. For immunoreaction, incubation with rabbit TNFα antiserum (1 h; dilution 1:10 000) and with horse radish peroxidase-conjugated secondary antibody (Dako P448) were carried out in Tris 50 mM, NaCl 150 mM, EDTA 5 mM, Igepal 0.1%, gelatine 0.5%. Detection was with ECL™ reagents (GE Healthcare).
(In western blotting, separated proteins are transferred to a membrane and probed.)

One may read the IC50 as the concentration that gives 50% inhibition. A low value points to greater potency.

Changes are numbered by the printed parent chain. Names may count otherwise. Where no end group is shown, it is not given here.

Chain of HLA DRB1 *1101 (P01903 26-254 limits assumed, other chains not shown): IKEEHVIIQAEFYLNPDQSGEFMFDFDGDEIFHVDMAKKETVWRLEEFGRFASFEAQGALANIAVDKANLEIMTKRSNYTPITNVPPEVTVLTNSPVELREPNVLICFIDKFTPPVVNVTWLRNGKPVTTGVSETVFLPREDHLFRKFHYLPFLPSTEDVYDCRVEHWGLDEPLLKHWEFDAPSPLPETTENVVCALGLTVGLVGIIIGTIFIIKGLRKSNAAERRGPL
Chain of HLA DRB4 *0101 (P01903 26-254 limits assumed): as the sequence (P01903 26-254 limits assumed, other chains not shown) above
Chain of HLA DRB4 *0101 (P13762 whole entry G164S): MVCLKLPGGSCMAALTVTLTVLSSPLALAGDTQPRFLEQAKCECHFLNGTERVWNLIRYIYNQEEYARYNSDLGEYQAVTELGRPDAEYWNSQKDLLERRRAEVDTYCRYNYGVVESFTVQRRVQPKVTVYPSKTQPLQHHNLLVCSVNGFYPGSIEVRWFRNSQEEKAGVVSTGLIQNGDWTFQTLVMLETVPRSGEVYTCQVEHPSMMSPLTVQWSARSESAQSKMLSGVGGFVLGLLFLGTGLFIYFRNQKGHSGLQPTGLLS
Chain of HLA DRB1 *0301 (P01903 26-254 limits assumed, other chains not shown): as the sequence (P01903 26-254 limits assumed, other chains not shown) above
Chain of HLA DRB1 *1302 (P01903 26-254 limits assumed, other chains not shown): as above

On to AAAIFVAAFTLHAAA [SEQ ID NO: 71], for which the IC50 came to 12 nM at HLA DRB1 *0101; 442 nM against HLA DRB1 *0301; 14 nM at HLA DRB1 *0405; 206 nM against HLA DRB1 *0701; 80 nM against HLA DRB1 *0901; 117 nM at HLA DRB4 *0101. For the same molecule, the IC50 against HLA DRB1 *1501 was determined as 9.7 nM; against HLA DRB5 *0101, 21 nM; on HLA DRB1 *0404 it was 2.7 nM; at HLA DRB1 *1101 it was 12 nM.
As for AAANFVAAWTLKADA [SEQ ID NO: 55], the IC50 on HLA DRB1 *0101 was found to be 7.6 nM; on HLA DRB1 *0401, 5.5 nM; against HLA DRB1 *0701 it was 52 nM; on HLA DRB1 *0802 it was 35 nM; on HLA DRB5 *0101, 24 nM; at HLA DRB1 *0404 it was 9.7 nM. Moreover, the IC50 at HLA DRB1 *1101 is 41 nM.
Regarding AAAQFVAAYTLHAAA [SEQ ID NO: 65], the half-maximal inhibitory concentration (IC50) stood at 4.2 nM against HLA DRB1 *0101; 153 nM against HLA DRB1 *0301; 2.2 nM at HLA DRB1 *0401; 22 nM at HLA DRB1 *0405; 5.1 nM against HLA DRB1 *0802; 21 nM against HLA DRB1 *0901. The half-maximal inhibitory concentration (IC50) was found to be 428 nM on HLA DRB4 *0101; 700 nM on HLA DRB1 *1302; 3.6 nM at HLA DRB1 *1501; 24 nM on HLA DRB5 *0101; 17 nM at HLA DRB1 *1101.

B1: SEQ ID NO: 78: TNFα (Y87S) variant with the 12 C-terminal residues of SEQ ID NO: 23 inserted (protein)
chain: MVRSSSRTPSDKPVAHVVANPQAEGQLQWLNRRANALLANGVELRDNQLVVPSEGLYLIYSQVLFKGQGCPSTHVLLTHTISRIAVSSQTKVNLLSAIKSPCQRETPEGAYFVAAFTLHAAAEAKPWYEPIYLGGVFQLEKGDRLSAEINRPDYLDFAESGQVYFGIIAL
modifications: Synthetic TNF variant incorporating pan-DR binding peptide
With B1, the “protease resistance of TNF variants (proteolytic cleavage inside the PADRE analogue sequence)” value in [1] is given as “protease resistant”.

B2: SEQ ID NO: 84: TNFα (Y87S) variant with the 12 C-terminal residues of SEQ ID NO: 69 inserted (protein)
chain: B1 chain with Y111I, F116W
modifications: Synthetic TNF variant incorporating pan-DR binding peptide
For the molecule B2, the “protease resistance of TNF variants (proteolytic cleavage inside the PADRE analogue sequence)” value in series [1] is on record as “protease resistant”.

B3: SEQ ID NO: 79: TNFα (Y87S) variant with the 12 C-terminal residues of SEQ ID NO: 29 inserted (protein)
chain: B1 chain with Y111H, F116N
modifications: Synthetic TNF variant incorporating pan-DR binding peptide
For B3, the “protease resistance of TNF variants (proteolytic cleavage inside the PADRE analogue sequence)” value in [1] is listed as “protease resistant”.

The values above are taken from patent publication US9789181B2, “PAN-DR binding polypeptides and uses thereof” (Epimmune Inc., priority 2009, dated 2017).
